Assay results: the supplement of paper PMC8967900

What was measured:
Test in all cases: selective drug sensitivity score (sDSS, relative to normal bone marrow) (sDSS (score)); higher = more potent and effective on the cell line relative to normal bone marrow cells
Conditions in all cases: 72 h
[1] = tested on: 697
[2] = tested on: CCRF-CEM
[3] = tested on: COG-LL-317
[4] = tested on: COG-LL-332h
[5] = tested on: COG-LL-394h
[6] = tested on: COG-LL-402h
[7] = tested on: DND-41
[8] = tested on: HAL-01
[9] = tested on: HPB-ALL
[10] = tested on: KASUMI-2
[11] = tested on: KOPN-8
[12] = tested on: LC4-1
[13] = tested on: MOLT-14
[14] = tested on: MOLT-16
[15] = tested on: MOLT-4
[16] = tested on: P12-ICHIKAWA
[17] = tested on: P30-OHKUBO
[18] = tested on: SEM cells
[19] = tested on: SUP-B15
[20] = tested on: TANOUE
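Further: ALL cell lines in 384-well plates, five doses spanning 10,000-fold, each plate scaled between vehicle and 100 µmol/L benzalkonium chloride controls, sDSS an adapted area-under-curve metric.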

Structure (SMILES)	selective drug sensitivity score [1]	selective drug sensitivity score [2]	selective drug sensitivity score [3]	selective drug sensitivity score [4]	selective drug sensitivity score [5]	selective drug sensitivity score [6]	selective drug sensitivity score [7]	selective drug sensitivity score [8]	selective drug sensitivity score [9]	selective drug sensitivity score [10]	selective drug sensitivity score [11]	selective drug sensitivity score [12]	selective drug sensitivity score [13]	selective drug sensitivity score [14]	selective drug sensitivity score [15]	selective drug sensitivity score [16]	selective drug sensitivity score [17]	selective drug sensitivity score [18]	selective drug sensitivity score [19]	selective drug sensitivity score [20]
COc1cc(C)[nH]c(=O)c1CNC(=O)c1c(C)n([C@H](C)C2CCOCC2)c2ccccc12 [CPI-360] (top concentration 10000 nM)	0	0	0	0	0	0	0	1.3	0	0	0	0	0	0	0	0	1.8	0	0	0
CNC(=O)c1ccc(-c2cnc3ncc(Cc4ccc5ncccc5c4)n3n2)cc1F [Capmatinib] (top concentration 1000 nM)	-0.06	0.04	0.34	-0.06	-0.06	0.74	0.34	2.34	-0.06	-0.06	-0.06	0.64	-0.06	0.04	-0.06	-0.06	-0.06	-0.06	-0.06	0.44
COc1cc2c(Oc3ccc4[nH]c(C)cc4c3F)ncnc2cc1OCCCN1CCCC1 [Cediranib] (top concentration 1000 nM)	0.9	0.1	0.1	0	0	0	0	5.7	0	0	0	0	0	0	0.1	0	2.7	0.2	0	0
CCN(CC)CCCC(C)Nc1ccnc2cc(Cl)ccc12 (stereo not given) [Chloroquine] (top concentration 100000 nM)	-2.14	-2.94	0.36	-0.64	-4.54	-3.94	-0.94	0.36	-6.64	-8.14	-1.14	-3.74	-2.84	-3.14	-7.24	-3.94	0.26	-0.74	-4.14	-6.04
C[C@@H](Oc1cc(-c2cnn(C3CCNCC3)c2)cnc1N)c1c(Cl)ccc(F)c1Cl [Crizotinib] (top concentration 1000 nM)	-0.24	-0.54	-0.54	2.76	0.86	-0.54	-0.54	-0.54	-0.54	-0.54	-0.54	-0.54	-0.54	-0.54	-0.54	-0.54	-0.54	-0.54	3.86	-0.54
COc1cc2ncnc(Nc3ccc(F)c(Cl)c3)c2cc1NC(=O)/C=C/CN1CCCCC1 [Dacomitinib] (top concentration 1000 nM)	-0.34	0.26	-0.44	-0.84	-1.64	0.96	-1.04	2.66	-1.54	-1.64	-0.34	-0.94	0.86	-1.04	-1.54	-1.44	0.96	0.86	-1.34	-1.64
CCN(CC)CCN(Cc1ccc(-c2ccc(C(F)(F)F)cc2)cc1)C(=O)Cn1c(SCc2ccc(F)cc2)nc(=O)c2c1CCC2 [Darapladib] (top concentration 1000 nM)	-1.42	-1.42	-1.42	-0.92	-1.42	-1.42	-0.72	0.58	-1.42	0.98	7.18	-1.42	-1.42	3.28	-1.42	-1.42	0.68	-1.42	-1.42	-1.42
C[C@@H]1C[C@H]2[C@@H]3CCC4=CC(=O)C=C[C@]4(C)[C@@]3(F)[C@@H](O)C[C@]2(C)[C@@]1(O)C(=O)CO [Dexamethasone] (top concentration 10000 nM)	32.2	13.9	11.3	1.88	-1.52	29.3	36.3	-1.42	3.18	14.6	33.9	12.5	-1.52	9.68	1.48	28	28.6	10.9	43	-1.42
Cc1cc(C)c(CNC(=O)c2cc(-c3ccc(CN4CCOCC4)cc3)cc3c2cnn3C2CCCC2)c(=O)[nH]1 [EPZ-5687] (top concentration 10000 nM)	-0.36	0.14	-0.36	-0.36	-0.36	-0.36	-0.36	3.24	-0.36	-0.36	-0.36	-0.36	-0.36	-0.36	-0.36	-0.36	2.24	-0.36	-0.36	-0.36
